Experimental data published in patent US20230085307A1, “PYRIDAZINONE COMPOUND AND HERBICIDE” (NISSAN CHEMICAL CORPORATION, priority 2019, published 2023).

test system: late watergrass; experiment: Test Example 1: herbicidal activity, application before weed generation under submerged conditions (Table 16, symbol A); type: in vivo, late watergrass (Echinochloa oryzicola); settings: amount of applied herbicide 320 g/ha
Outline: (§1)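 Emulsion formulation, water-diluted to set dose, was put onto the flooded surface (4 cm depth, alluvial soil) the same day weeds were sown and 2.5-leaf rice transplanted. After 3 weeks at 25-30 °C under glass, each species was rated 0 (≤5% kill) to 5 (≥90% kill).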

Row | Compound | Herbicidal effect, A: late watergrass
1 | COc1ccccc1-c1sc2cc(OCC(C)C)ccc2c1-c1c(O)c(C)nn(C)c1=O [3-107] | 4 (Herbicidal rate of 70% or more and less than 90%)
2 | COc1ccccc1-c1sc2cc(OCc3ccccc3)ccc2c1-c1c(O)c(C)nn(C)c1=O [3-118] | 3 (Herbicidal rate of 40% or more and less than 70%)

test system: Japanese bulrush; experiment: Test Example 1: herbicidal activity, application before weed generation under submerged conditions (Table 16, symbol B); type: in vivo, Japanese bulrush (Schoenoplectus juncoides); settings: amount of applied herbicide 320 g/ha
Outline: as §1

Row | Compound | Herbicidal effect, B: Japanese bulrush
3 | COc1ccccc1-c1sc2cc(OCC(C)C)ccc2c1-c1c(O)c(C)nn(C)c1=O [3-107] | 5 (Herbicidal rate of 90% or more (almost completely withered))
4 | COc1ccccc1-c1sc2cc(OCc3ccccc3)ccc2c1-c1c(O)c(C)nn(C)c1=O [3-118] | 3 (Herbicidal rate of 40% or more and less than 70%)

test system: Japanese bulrush; experiment: Test Example 2: herbicidal activity, application during weed generation under submerged conditions (Table 17, symbol B); type: in vivo, Japanese bulrush (Schoenoplectus juncoides); settings: AAH 320 g/ha; application during weed generation, submerged conditions
Outline: (§2)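 Alluvial soil in Wagner pots was flooded to 4 cm depth and sown with the three weeds together; pots were kept in a greenhouse at 25° C. to 30° C. At the one to two leaf stage, an emulsion formulation diluted in water to a set rate went onto the water surface; scored three weeks later.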

Row | Compound | herbicidal effect rating, B: Japanese bulrush
5 | COc1ccccc1-c1sc2cc(OCC(C)C)ccc2c1-c1c(O)c(C)nn(C)c1=O [3-107] | 5 (Herbicidal rate of 90% or more (almost completely withered))
6 | COc1ccccc1-c1sc2cc(OCc3ccccc3)ccc2c1-c1c(O)c(C)nn(C)c1=O [3-118] | 2 (Herbicidal rate of 20% or more and less than 40%)

test system: oval-leafed pondweed; experiment: Test Example 2: herbicidal activity, application during weed generation under submerged conditions (Table 17, symbol C); type: in vivo, oval-leafed pondweed (Monochoria vaginalis); settings: AAH 320 g/ha; application during weed generation, submerged conditions
Outline: as §2

Row | Compound | herbicidal effect rating, C: oval-leafed pondweed
7 | COc1ccccc1-c1sc2cc(OCC(C)C)ccc2c1-c1c(O)c(C)nn(C)c1=O [3-107] | 5 (Herbicidal rate of 90% or more (almost completely withered))
8 | COc1ccccc1-c1sc2cc(OCc3ccccc3)ccc2c1-c1c(O)c(C)nn(C)c1=O [3-118] | 0 (Herbicidal rate of 5% or less (almost no effect))

test system: green foxtail; experiment: Test Example 4: herbicidal effect by soil treatment (Table 19, symbol G); type: in vivo, green foxtail (Setaria viridis); settings: amount of applied herbicide 320 g/ha
Outline: (§3)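 Soil-surface application: an emulsion agent diluted with water to the predetermined dose is sprayed uniformly over seeds lying under roughly 1.5 cm of sterilized diluvial soil. Boxes stay in a greenhouse at 25° C. to 30° C. Three weeks later, each species is graded on previously defined criteria.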

Row | Compound | G: green foxtail, herbicidal effect grade
9 | COc1ccccc1-c1sc2cc(OCC(C)C)ccc2c1-c1c(O)c(C)nn(C)c1=O [3-107] | 4 (Herbicidal rate of 70% or more and less than 90%)
10 | COc1ccccc1-c1sc2cc(OCc3ccccc3)ccc2c1-c1c(O)c(C)nn(C)c1=O [3-118] | 0 (Herbicidal rate of 5% or less (almost no effect))

test system: wild oat; experiment: Test Example 4: herbicidal effect by soil treatment (Table 19, symbol I); type: in vivo, wild oat (Avena fatua); settings: amount of applied herbicide 320 g/ha
Outline: as §3

Row | Compound | I: wild oat, herbicidal effect grade
11 | COc1ccccc1-c1sc2cc(OCC(C)C)ccc2c1-c1c(O)c(C)nn(C)c1=O [3-107] | 0 (Herbicidal rate of 5% or less (almost no effect))
12 | COc1ccccc1-c1sc2cc(OCc3ccccc3)ccc2c1-c1c(O)c(C)nn(C)c1=O [3-118] | 0 (Herbicidal rate of 5% or less (almost no effect))

test system: blackgrass; experiment: Test Example 4: herbicidal effect by soil treatment (Table 19, symbol J); type: in vivo, blackgrass (Alopecurus myosuroides); settings: amount of applied herbicide 320 g/ha
Outline: as §3

Row | Compound | J: blackgrass, herbicidal effect grade
13 | COc1ccccc1-c1sc2cc(OCC(C)C)ccc2c1-c1c(O)c(C)nn(C)c1=O [3-107] | 0 (Herbicidal rate of 5% or less (almost no effect))
14 | COc1ccccc1-c1sc2cc(OCc3ccccc3)ccc2c1-c1c(O)c(C)nn(C)c1=O [3-118] | 0 (Herbicidal rate of 5% or less (almost no effect))

test system: Italian ryegrass; experiment: Test Example 4: herbicidal effect by soil treatment (Table 19, symbol K); type: in vivo, Italian ryegrass (Lolium multiflorum); settings: amount of applied herbicide 320 g/ha
Outline: as §3

Row | Compound | K: Italian ryegrass, herbicidal effect grade
15 | COc1ccccc1-c1sc2cc(OCC(C)C)ccc2c1-c1c(O)c(C)nn(C)c1=O [3-107] | 5 (Herbicidal rate of 90% or more (almost completely withered))
16 | COc1ccccc1-c1sc2cc(OCc3ccccc3)ccc2c1-c1c(O)c(C)nn(C)c1=O [3-118] | 3 (Herbicidal rate of 40% or more and less than 70%)

test system: velvetleaf; experiment: Test Example 4: herbicidal effect by soil treatment (Table 19, symbol M); type: in vivo, velvetleaf (Abutilon theophrasti); settings: amount of applied herbicide 320 g/ha
Outline: as §3

Row | Compound | M: velvetleaf, herbicidal effect grade
17 | COc1ccccc1-c1sc2cc(OCC(C)C)ccc2c1-c1c(O)c(C)nn(C)c1=O [3-107] | 1 (Herbicidal rate of 5% or more and less than 20%)
18 | COc1ccccc1-c1sc2cc(OCc3ccccc3)ccc2c1-c1c(O)c(C)nn(C)c1=O [3-118] | 0 (Herbicidal rate of 5% or less (almost no effect))

test system: redroot pigweed; experiment: Test Example 4: herbicidal effect by soil treatment (Table 19, symbol N); type: in vivo, redroot pigweed (Amaranthus retroflexus); settings: amount of applied herbicide 320 g/ha
Outline: as §3

Row | Compound | N: redroot pigweed, herbicidal effect grade
19 | COc1ccccc1-c1sc2cc(OCC(C)C)ccc2c1-c1c(O)c(C)nn(C)c1=O [3-107] | 5 (Herbicidal rate of 90% or more (almost completely withered))
20 | COc1ccccc1-c1sc2cc(OCc3ccccc3)ccc2c1-c1c(O)c(C)nn(C)c1=O [3-118] | 3 (Herbicidal rate of 40% or more and less than 70%)

test system: lambsquarters; experiment: Test Example 4: herbicidal effect by soil treatment (Table 19, symbol O); type: in vivo, lambsquarters (Chenopodium album); settings: amount of applied herbicide 320 g/ha
Outline: as §3

Row | Compound | O: lambsquarters, herbicidal effect grade
21 | COc1ccccc1-c1sc2cc(OCC(C)C)ccc2c1-c1c(O)c(C)nn(C)c1=O [3-107] | 5 (Herbicidal rate of 90% or more (almost completely withered))
22 | COc1ccccc1-c1sc2cc(OCc3ccccc3)ccc2c1-c1c(O)c(C)nn(C)c1=O [3-118] | 1 (Herbicidal rate of 5% or more and less than 20%)

test system: persian speedwell; experiment: Test Example 4: herbicidal effect by soil treatment (Table 19, symbol R); type: in vivo, Persian speedwell (Veronica persica); settings: amount of applied herbicide 320 g/ha
Outline: as §3

Row | Compound | R: persian speedwell, herbicidal effect grade
23 | COc1ccccc1-c1sc2cc(OCC(C)C)ccc2c1-c1c(O)c(C)nn(C)c1=O [3-107] | 4 (Herbicidal rate of 70% or more and less than 90%)
24 | COc1ccccc1-c1sc2cc(OCc3ccccc3)ccc2c1-c1c(O)c(C)nn(C)c1=O [3-118] | 5 (Herbicidal rate of 90% or more (almost completely withered))

test system: southern crabgrass; experiment: Test Example 5: herbicidal effect by foliage application, plastic box (Table 20, symbol F); type: in vivo, southern crabgrass (Digitaria ciliaris); settings: foliage application, 320 g/ha, three weeks after application
Outline: (§4)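 Sow seeds spot-wise in sterilized diluvial soil; cover with ~1.5 cm soil. Grow 14 days in greenhouse, 25° C. to 30° C. Spray foliage with emulsion diluted to predetermined amount. Rate effect after 3 weeks.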

Row | Compound | F: southern crabgrass, herbicidal effect grade
25 | COc1ccccc1-c1sc2cc(OCC(C)C)ccc2c1-c1c(O)c(C)nn(C)c1=O [3-107] | 5 (Herbicidal rate of 90% or more (almost completely withered))
26 | COc1ccccc1-c1sc2cc(OCc3ccccc3)ccc2c1-c1c(O)c(C)nn(C)c1=O [3-118] | 4 (Herbicidal rate of 70% or more and less than 90%)

test system: green foxtail; experiment: Test Example 5: herbicidal effect by foliage application, plastic box (Table 20, symbol G); type: in vivo, green foxtail (Setaria viridis); settings: foliage application, 320 g/ha, three weeks after application
Outline: as §4

Row | Compound | G: green foxtail, herbicidal effect grade
27 | COc1ccccc1-c1sc2cc(OCC(C)C)ccc2c1-c1c(O)c(C)nn(C)c1=O [3-107] | 5 (Herbicidal rate of 90% or more (almost completely withered))
28 | COc1ccccc1-c1sc2cc(OCc3ccccc3)ccc2c1-c1c(O)c(C)nn(C)c1=O [3-118] | 3 (Herbicidal rate of 40% or more and less than 70%)

test system: barnyard grass; experiment: Test Example 5: herbicidal effect by foliage application, plastic box (Table 20, symbol H); type: in vivo, barnyard grass (Echinochloa crus-galli); settings: foliage application, 320 g/ha, three weeks after application
Outline: as §4

Row | Compound | H: barnyard grass, herbicidal effect grade
29 | COc1ccccc1-c1sc2cc(OCC(C)C)ccc2c1-c1c(O)c(C)nn(C)c1=O [3-107] | 3 (Herbicidal rate of 40% or more and less than 70%)
30 | COc1ccccc1-c1sc2cc(OCc3ccccc3)ccc2c1-c1c(O)c(C)nn(C)c1=O [3-118] | 0 (Herbicidal rate of 5% or less (almost no effect))

test system: wild oat; experiment: Test Example 5: herbicidal effect by foliage application, plastic box (Table 20, symbol I); type: in vivo, wild oat (Avena fatua); settings: foliage application, 320 g/ha, three weeks after application
Outline: as §4

Row | Compound | I: wild oat, herbicidal effect grade
31 | COc1ccccc1-c1sc2cc(OCC(C)C)ccc2c1-c1c(O)c(C)nn(C)c1=O [3-107] | 0 (Herbicidal rate of 5% or less (almost no effect))
32 | COc1ccccc1-c1sc2cc(OCc3ccccc3)ccc2c1-c1c(O)c(C)nn(C)c1=O [3-118] | 3 (Herbicidal rate of 40% or more and less than 70%)

test system: blackgrass; experiment: Test Example 5: herbicidal effect by foliage application, plastic box (Table 20, symbol J); type: in vivo, blackgrass (Alopecurus myosuroides); settings: foliage application, 320 g/ha, three weeks after application
Outline: as §4

Row | Compound | J: blackgrass, herbicidal effect grade
33 | COc1ccccc1-c1sc2cc(OCC(C)C)ccc2c1-c1c(O)c(C)nn(C)c1=O [3-107] | 4 (Herbicidal rate of 70% or more and less than 90%)
34 | COc1ccccc1-c1sc2cc(OCc3ccccc3)ccc2c1-c1c(O)c(C)nn(C)c1=O [3-118] | 4 (Herbicidal rate of 70% or more and less than 90%)

test system: Italian ryegrass; experiment: Test Example 5: herbicidal effect by foliage application, plastic box (Table 20, symbol K); type: in vivo, Italian ryegrass (Lolium multiflorum); settings: foliage application, 320 g/ha, three weeks after application
Outline: as §4

Row | Compound | K: Italian ryegrass, herbicidal effect grade
35 | COc1ccccc1-c1sc2cc(OCC(C)C)ccc2c1-c1c(O)c(C)nn(C)c1=O [3-107] | 5 (Herbicidal rate of 90% or more (almost completely withered))
36 | COc1ccccc1-c1sc2cc(OCc3ccccc3)ccc2c1-c1c(O)c(C)nn(C)c1=O [3-118] | 5 (Herbicidal rate of 90% or more (almost completely withered))

test system: windgrass; experiment: Test Example 5: herbicidal effect by foliage application, plastic box (Table 20, symbol L); type: in vivo, windgrass (Apera spica-venti); settings: foliage application, 320 g/ha, three weeks after application
Outline: as §4

Row | Compound | L: windgrass, herbicidal effect grade
37 | COc1ccccc1-c1sc2cc(OCC(C)C)ccc2c1-c1c(O)c(C)nn(C)c1=O [3-107] | 5 (Herbicidal rate of 90% or more (almost completely withered))
38 | COc1ccccc1-c1sc2cc(OCc3ccccc3)ccc2c1-c1c(O)c(C)nn(C)c1=O [3-118] | 5 (Herbicidal rate of 90% or more (almost completely withered))

test system: velvetleaf; experiment: Test Example 5: herbicidal effect by foliage application, plastic box (Table 20, symbol M); type: in vivo, velvetleaf (Abutilon theophrasti); settings: foliage application, 320 g/ha, three weeks after application
Outline: as §4

Row | Compound | M: velvetleaf, herbicidal effect grade
39 | COc1ccccc1-c1sc2cc(OCC(C)C)ccc2c1-c1c(O)c(C)nn(C)c1=O [3-107] | 5 (Herbicidal rate of 90% or more (almost completely withered))
40 | COc1ccccc1-c1sc2cc(OCc3ccccc3)ccc2c1-c1c(O)c(C)nn(C)c1=O [3-118] | 2 (Herbicidal rate of 20% or more and less than 40%)

test system: chickweed; experiment: Test Example 5: herbicidal effect by foliage application, plastic box (Table 20, symbol P); type: in vivo, common chickweed (Stellaria media); settings: foliage application, 320 g/ha, three weeks after application
Outline: as §4

Row | Compound | P: chickweed, herbicidal effect grade
41 | COc1ccccc1-c1sc2cc(OCC(C)C)ccc2c1-c1c(O)c(C)nn(C)c1=O [3-107] | 5 (Herbicidal rate of 90% or more (almost completely withered))
42 | COc1ccccc1-c1sc2cc(OCc3ccccc3)ccc2c1-c1c(O)c(C)nn(C)c1=O [3-118] | 3 (Herbicidal rate of 40% or more and less than 70%)
